The text below walks through data of patent US10450292B2, “Inhibitors of bacterial RNA polymerase: arylpropanoyl, arylpropenoyl, and arylcyclopropanecarboxyl phloroglucinols” (Rutgers, The State University of New Jersey, priority 2015, dated 2019).

≈ marks a conversion by molar mass, not a printed value. Read-outs that look alike come from different tables or passages of the source. A value given as a limit tells only on which side of the number the result lay.

The test system of assay [1] is Enterococcus faecalis ATCC 19433. The assay is described as follows: Inhibition of bacterial growth in culture, spiral gradient endpoint assay (MIC). The assay is classed as cell-based. Conditions: Enterococcus faecalis, ATCC 19433 /, 16 h. The text has this: J. Microbiol. Meths. […] Int. J. Exp. Clin. Chemother. […] Adv.
In assay [2] the test system is Escherichia coli D21f2tolC. The assay is described as follows: microbe, parasite or virus in culture. Conditions: 16 h.
The test system of assay [3] is Staphylococcus aureus ATCC 12600. The assay can be described thus: Inhibition of bacterial growth in culture, spiral gradient endpoint assay (MIC). The note with it: Staphylococcus aureus, ATCC12600, 16 h.
Setting [4] is: read-out: MIC E. faecalis, Mueller-Hinton II agar, 16 h at 37° C.
Where [5] appears, read: read-out: MIC E. coli D21f2tolC, Mueller-Hinton II agar, 16 h at 37° C.
Where [6] appears, read: read-out: MIC S. aureus 12600, Mueller-Hinton II agar, 16 h at 37° C.

Take `Cc1cc(Cl)ccc1C1CC1C(=O)c1c(O)cc(O)c(Cl)c1O` (stereo not drawn) [Example 56, (3-chloro-2,4,6-trihydroxyphenyl)(2-(4-chloro-2-methylphenyl)cyclopropyl)methanone]: the MIC in assay [1] (setting [4]) was 22 µg/mL (≈ 62.3 µM); in assay [2] (setting [5]) it was above 40 µg/mL; in assay [3] (setting [6]), 17 µg/mL (≈ 48.1 µM).

On to `CCCC1=C(O)C(CCC)(CCC)C(=O)C(C(=O)C2CC2c2ccc(Cl)cc2C(F)(F)F)=C1O` (stereo not drawn) [Example 80, 2-(2-(4-chloro-2-(trifluoromethyl)phenyl)cyclopropanecarbonyl)-3,5-dihydroxy-4,6,6-tripropylcyclohexa-2,4-dienone], for which the MIC in assay [1] (setting [4]) came out at 0.42 µg/mL (≈ 0.842 µM); in assay [2] (setting [5]) it was 0.33 µg/mL (≈ 0.661 µM); in assay [3] (setting [6]) it was 0.14 µg/mL (≈ 0.281 µM).

Take `O=C(CCc1ccc(Oc2ccc(C(F)(F)F)cc2)cc1)c1c(O)cc(O)cc1O` [Example 35, 3-(4-(4-(trifluoromethyl)phenoxy)phenyl)-1-(2,4,6-trihydroxyphenyl)propan-1-one]: the MIC in assay [1] (setting [4]) came to 5.1 µg/mL (≈ 12.2 µM); in assay [2] (setting [5]), 1.3 µg/mL (≈ 3.11 µM); in assay [3] (setting [6]) it was 3.5 µg/mL (≈ 8.37 µM).

With `O=C(CCc1ccc(Oc2ccccc2)cc1C(F)(F)F)c1c(O)cc(O)cc1O` [Example 16, 3-(4-phenoxy-2-(trifluoromethyl)phenyl)-1-(2,4,6-trihydroxyphenyl)propan-1-one], the figures for the MIC in assay [1] (setting [4]), in assay [2] (setting [5]) and in assay [3] (setting [6]) were 1.8 µg/mL (≈ 4.3 µM), 1.3 µg/mL (≈ 3.11 µM) and 1.1 µg/mL (≈ 2.63 µM), respectively.

Regarding `Cc1cc(Oc2ccc(F)cc2)ccc1CCC(=O)c1c(O)cc(O)cc1O` [Example 34, 3-(4-(4-fluorophenoxy)-2-methylphenyl)-1-(2,4,6-trihydroxyphenyl)propan-1-one], the values for the MIC in assay [1] (setting [4]), in assay [2] (setting [5]) and in assay [3] (setting [6]) were 5.2 µg/mL (≈ 13.6 µM), 1.1 µg/mL (≈ 2.88 µM) and 3.6 µg/mL (≈ 9.41 µM), respectively.

`CC1=C(O)C(C)(C)C(=O)C(C(=O)C2CC2c2ccc(Cl)cc2C)=C1O` (stereo not drawn) [Example 77, 2-(2-(4-chloro-2-methylphenyl)cyclopropanecarbonyl)-3,5-dihydroxy-4,6,6-trimethylcyclohexa-2,4-dienone]: the MIC in assay [1] (setting [4]) is above 40 µg/mL; in assay [2] (setting [5]) it was 7.4 µg/mL (≈ 20.5 µM); in assay [3] (setting [6]) it was above 40 µg/mL.

Regarding `COc1ccc(C2CC2C(=O)c2c(O)cc(O)cc2O)cc1` (stereo not drawn) [Example 38, (2-(4-methoxyphenyl)cyclopropyl)(2,4,6-trihydroxyphenyl)methanone], the MIC in assay [1] (setting [4]), in assay [2] (setting [5]) and in assay [3] (setting [6]) was above 40 µg/mL in each case.

`O=C(c1c(O)cc(O)cc1O)C1CC1c1ccc(Oc2ccc(F)cc2F)cc1` (stereo not drawn) [Example 43, (2-(4-(2,4-difluorophenoxy)phenyl)cyclopropyl)(2,4,6-trihydroxyphenyl) methanone]: the results for the MIC in assay [1] (setting [4]), in assay [2] (setting [5]) and in assay [3] (setting [6]) were 8.4 µg/mL (≈ 21.1 µM), 2.8 µg/mL (≈ 7.03 µM) and 6.6 µg/mL (≈ 16.6 µM), respectively.

On to `O=C(c1c(O)cc(O)cc1O)C1CC1c1ccc(C(F)(F)F)cc1` (stereo not drawn) [Example 58, (2-(4-(trifluoromethyl)phenyl)cyclopropyl)(2,4,6-trihydroxyphenyl)methanone], for which the MIC turned out to be 12 µg/mL (≈ 35.5 µM) in assay [1] (setting [4]), 3.9 µg/mL (≈ 11.5 µM) in assay [2] (setting [5]) and 10 µg/mL (≈ 29.6 µM) in assay [3] (setting [6]).

In the case of `CCCC1=C(O)C(CCC)(CCC)C(=O)C(C(=O)C2CC2c2ccc(C(F)(F)F)cc2)=C1O` (stereo not drawn) [Example 91, 3,5-dihydroxy-4,6,6-tripropyl-2-(2-(4-(trifluoromethyl)phenyl)cyclopropanecarbonyl)cyclohexa-2,4-dienone], the MIC in assay [1] (setting [4]) turned out to be 0.41 µg/mL (≈ 0.883 µM); in assay [2] (setting [5]), 0.66 µg/mL (≈ 1.42 µM); in assay [3] (setting [6]), 0.36 µg/mL (≈ 0.775 µM).

For the compound `CCCC1(CCC)C(=O)C(C(=O)CCc2ccc(Oc3ccc(F)cc3)cc2)=C(O)C=C1O` [Example 63, 2-(3-(4-(4-fluorophenoxy)phenyl)propanoyl)-3,5-dihydroxy-6,6-dipropylcyclohexa-2,4-dienone], the MIC was above 40 µg/mL in assay [1] (setting [4]), 2.4 µg/mL (≈ 5.3 µM) in assay [2] (setting [5]) and 5.1 µg/mL (≈ 11.3 µM) in assay [3] (setting [6]).

With `O=C(c1c(O)cc(O)cc1O)C1CC1c1ccc(Oc2ccc(F)cc2)cc1C(F)(F)F` (stereo not drawn) [Example 44, (2-(4-(4-fluorophenoxy)-2-(trifluoromethyl)phenyl)cyclopropyl)(2,4,6-trihydroxyphenyl)methanone], the results for the MIC in assay [1] (setting [4]), in assay [2] (setting [5]) and in assay [3] (setting [6]) were 1.8 µg/mL (≈ 4.01 µM), 1.5 µg/mL (≈ 3.35 µM) and 1.5 µg/mL (≈ 3.35 µM), respectively.

`Cc1cc(Oc2ccc(F)cc2)ccc1/C=C/C(=O)c1c(O)cc(O)cc1O` [Example 27, (E)-3-(4-(4-fluorophenoxy)-2-methylphenyl)-1-(2,4,6-trihydroxyphenyl)prop-2-en-1-one]: the MIC in assay [1] (setting [4]) was determined as 17 µg/mL (≈ 44.7 µM); in assay [2] (setting [5]) it was 2.4 µg/mL (≈ 6.31 µM); in assay [3] (setting [6]), 5.1 µg/mL (≈ 13.4 µM).

For the compound `Cc1cc(Oc2ccccc2)ccc1CCC(=O)c1c(O)cc(O)cc1O` [Example 33, 3-(2-methyl-4-phenoxyphenyl)-1-(2,4,6-trihydroxyphenyl)propan-1-one], the MIC in assay [1] (setting [4]) was 7.5 µg/mL (≈ 20.6 µM); in assay [2] (setting [5]), 1.6 µg/mL (≈ 4.39 µM); in assay [3] (setting [6]) it was 4.6 µg/mL (≈ 12.6 µM).

With `O=C(c1c(O)cc(O)c(Cl)c1O)C1CC1c1ccc(Oc2ccc(F)cc2)cc1` (stereo not drawn) [Example 46, (3-chloro-2,4,6-trihydroxyphenyl)(2-(4-(4-fluorophenoxy)phenyl)cyclopropyl)methanone], the MIC in assay [1] (setting [4]) is 12 µg/mL (≈ 28.9 µM); in assay [2] (setting [5]) it was 6.6 µg/mL (≈ 15.9 µM); in assay [3] (setting [6]), 9.6 µg/mL (≈ 23.1 µM).

Consider `CCC1=C(O)C(CC)(CC)C(=O)C(C(=O)C2CC2c2ccc(Oc3ccc(F)cc3)cc2C(F)(F)F)=C1O` (stereo not drawn) [Example 72, 4,6,6-triethyl-2-(2-(4-(4-fluorophenoxy)-2-(trifluoromethyl)phenyl)cyclopropanecarbonyl)-3,5-dihydroxycyclohexa-2,4-dienone], for which the MIC in assay [1] (setting [4]) is above 40 µg/mL; in assay [2] (setting [5]), 1.6 µg/mL (≈ 3 µM); in assay [3] (setting [6]), 6.5 µg/mL (≈ 12.2 µM).

`CC1=C(O)C(C)(C)C(=O)C(C(=O)C2CC2c2ccc(Oc3ccc(F)cc3)cc2C)=C1O` (stereo not drawn) [Example 75, 2-(2-(4-(4-fluorophenoxy)-2-methylphenyl)cyclopropanecarbonyl)-3,5-dihydroxy-4,6,6-trimethylcyclohexa-2,4-dienone]: the MIC in assay [1] (setting [4]) is above 40 µg/mL; in assay [2] (setting [5]), 5.1 µg/mL (≈ 11.7 µM); in assay [3] (setting [6]), 17 µg/mL (≈ 38.9 µM).

`O=C(/C=C/c1ccc(Oc2ccc(F)cc2)cc1)c1c(O)cc(O)c(Cl)c1O` [Example 48, (E)-1-(3-chloro-2,4,6-trihydroxyphenyl)-3-(4-(4-fluorophenoxy)phenyl)prop-2-en-1-one]: the MIC is above 40 µg/mL in assay [1] (setting [4]), 20 µg/mL (≈ 49.9 µM) in assay [2] (setting [5]) and above 40 µg/mL in assay [3] (setting [6]).

For the compound `CCCC1=C(O)C(CCC)(CCC)C(=O)C(C(=O)C2CC2c2ccc(Cl)cc2)=C1O` (stereo not drawn) [Example 79, 2-(2-(4-chlorophenyl)cyclopropanecarbonyl)-3,5-dihydroxy-4,6,6-tripropylcyclohexa-2,4-dienone], the MIC came out at 0.61 µg/mL (≈ 1.42 µM) in assay [1] (setting [4]), 0.15 µg/mL (≈ 0.348 µM) in assay [2] (setting [5]) and 0.27 µg/mL (≈ 0.626 µM) in assay [3] (setting [6]).

Turning to `CCCC1=C(O)C(CCC)(CCC)C(=O)C(C(=O)CCc2ccc(Oc3ccc(F)cc3)cc2C)=C1O` [Example 69, 2-(3-(4-(4-fluorophenoxy)-2-methylphenyl)propanoyl)-3,5-dihydroxy-4,6,6-tripropylcyclohexa-2,4-dienone], the MIC came to 1.4 µg/mL (≈ 2.75 µM) in assay [1] (setting [4]), 1.1 µg/mL (≈ 2.16 µM) in assay [2] (setting [5]) and 1.1 µg/mL (≈ 2.16 µM) in assay [3] (setting [6]).

Regarding `Cc1cc(Oc2ccc(Cl)cc2)ccc1CCC(=O)c1c(O)cc(O)cc1O` [Example 24, 3-(4-(4-chlorophenoxy)-2-methylphenyl)-1-(2,4,6-trihydroxyphenyl)propan-1-one], the MIC in assay [1] (setting [4]) amounted to 3 µg/mL (≈ 7.52 µM); in assay [2] (setting [5]), 1.1 µg/mL (≈ 2.76 µM); in assay [3] (setting [6]), 1.8 µg/mL (≈ 4.51 µM).

With `CCC1=C(O)C(CC)(CC)C(=O)C(C(=O)C2CC2c2ccc(C(F)(F)F)cc2)=C1O` (stereo not drawn) [Example 90, 4,6,6-triethyl-3,5-dihydroxy-2-(2-(4-(trifluoromethyl)phenyl)cyclopropanecarbonyl)cyclohexa-2,4-dienone], the MIC in assay [1] (setting [4]) worked out at 2.3 µg/mL (≈ 5.44 µM); in assay [2] (setting [5]) it was 1.1 µg/mL (≈ 2.6 µM); in assay [3] (setting [6]), 1.4 µg/mL (≈ 3.31 µM).

Consider `CCC1=C(O)C(CC)(CC)C(=O)C(C(=O)C2CC2c2ccc(Oc3ccc(F)cc3)cc2)=C1O` (stereo not drawn) [Example 62, 4,6,6-triethyl-2-(2-(4-(4-fluorophenoxy)phenyl)cyclopropanecarbonyl)-3,5-dihydroxycyclohexa-2,4-dienone], for which the MIC in assay [1] (setting [4]) was 0.51 µg/mL (≈ 1.1 µM); in assay [2] (setting [5]), 0.28 µg/mL (≈ 0.603 µM); in assay [3] (setting [6]) it was 0.4 µg/mL (≈ 0.861 µM).

`O=C(/C=C/c1ccc(Oc2ccc(C(F)(F)F)cc2)cc1)c1c(O)cc(O)cc1O` [Example 28, (E)-3-(4-(4-(trifluoromethyl)phenoxy)phenyl)-1-(2,4,6-trihydroxyphenyl)prop-2-en-1-one]: the MIC in assay [1] (setting [4]) amounted to 6.5 µg/mL (≈ 15.6 µM); in assay [2] (setting [5]), 2.4 µg/mL (≈ 5.76 µM); in assay [3] (setting [6]), 3.1 µg/mL (≈ 7.45 µM).

Regarding `O=C(CCc1ccc(Oc2ccc(Cl)cc2)cc1)c1c(O)cc(O)cc1O` [Example 4, 3-(4-(4-chlorophenoxy)phenyl)-1-(2,4,6-trihydroxyphenyl)propan-1-one], the MIC is 3.2 µg/mL (≈ 8.32 µM) in assay [1] (read-out: MIC E. faecalis), 1.5 µg/mL (≈ 3.9 µM) in assay [2] (read-out: MIC E. coli D21f2tolC) and 2.4 µg/mL (≈ 6.24 µM) in assay [3] (read-out: MIC S. aureus 12600).

As to `CCCC1=C(O)C(CCC)(CCC)C(=O)C(C(=O)C2CC2c2ccc(C(F)(F)F)cc2C(F)(F)F)=C1O` (stereo not drawn) [Example 86, 2-(2-(2,4-bis(trifluoromethyl)phenyl)cyclopropanecarbonyl)-3,5-dihydroxy-4,6,6-tripropylcyclohexa-2,4-dienone], the MIC in assay [1] (setting [4]) stood at 1.7 µg/mL (≈ 3.19 µM); in assay [2] (setting [5]) it was 2.2 µg/mL (≈ 4.13 µM); in assay [3] (setting [6]) it was 0.65 µg/mL (≈ 1.22 µM).

As to `CCCC1(CCC)C(=O)C(C(=O)C2CC2c2ccc(Oc3ccc(F)cc3)cc2)=C(O)C=C1O` (stereo not drawn) [Example 65, 2-(2-(4-(4-fluorophenoxy)phenyl)cyclopropanecarbonyl)-3,5-dihydroxy-6,6-dipropylcyclohexa-2,4-dienone], the MIC was 1.9 µg/mL (≈ 4.09 µM) in assay [1] (setting [4]), above 40 µg/mL in assay [2] (setting [5]) and 1.9 µg/mL (≈ 4.09 µM) in assay [3] (setting [6]).
